Measured values from patent US8008290B2, “Compounds” (priority 2009, dated 2011).

Columns and labels:
[1] = target: T1, Human recombinant cathepsin K (Homo sapiens, UniProt P43235); experiment: In vitro cathepsin Ki inhibition measurement, cathepsin K; type: biochemical; settings: for Ki: human cathepsin K, steady-state, competitive model, read-out: In vitro Ki (nM) vs Cath K
T1 sequence (P43235 115-329): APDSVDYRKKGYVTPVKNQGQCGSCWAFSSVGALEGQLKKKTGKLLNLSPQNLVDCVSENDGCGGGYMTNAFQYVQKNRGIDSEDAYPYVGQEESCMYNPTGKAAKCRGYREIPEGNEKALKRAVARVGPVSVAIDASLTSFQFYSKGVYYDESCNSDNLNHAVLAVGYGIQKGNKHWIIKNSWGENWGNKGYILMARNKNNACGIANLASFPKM
Procedure: Stock solutions of substrate or inhibitor were made up to 10 mM in 100% dimethylsulfoxide (DMSO) (Rathburns, Glasgow, U.K.) and diluted as appropriately required. In all cases the DMSO concentration in the assays was maintained at less than 1% (vol./vol.). The equilibrium inhibition constants (Ki^ss) for each compound were measured under steady-state conditions monitoring enzyme activity as a function of inhibitor concentration. […] B. […] The apparent inhibition constant (Ki) for each compound was determined on the basis that inhibition was reversible and occurred by a pure-competitive mechanism. […] F. Trends Biochem. […] Morrison, J. F. Biochim. Biophys. […] Curves were fitted by non-linear regression analysis (Prism) using a fixed value for the enzyme concentration.

[2] = target: T2, Human recombinant cathepsin S (Homo sapiens, UniProt P25774); experiment: In vitro cathepsin Ki inhibition measurement, cathepsin S; type: biochemical
T2 construct: purchased Merck 219343; host or cells: E. coli
T2 sequence (P25774 115-331): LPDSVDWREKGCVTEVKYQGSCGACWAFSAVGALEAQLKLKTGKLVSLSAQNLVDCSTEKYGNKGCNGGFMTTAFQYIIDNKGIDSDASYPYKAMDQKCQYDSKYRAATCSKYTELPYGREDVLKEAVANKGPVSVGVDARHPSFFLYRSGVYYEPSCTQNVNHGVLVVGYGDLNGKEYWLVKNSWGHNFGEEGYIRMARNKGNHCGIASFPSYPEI
Procedure: Stock solutions of substrate or inhibitor were made up to 10 mM in 100% dimethylsulfoxide (DMSO) (Rathburns, Glasgow, U.K.) and diluted as appropriately required. In all cases the DMSO concentration in the assays was maintained at less than 1% (vol./vol.). The equilibrium inhibition constants (Ki^ss) for each compound were measured under steady-state conditions monitoring enzyme activity as a function of inhibitor concentration. […] The apparent inhibition constant (Ki) for each compound was determined on the basis that inhibition was reversible and occurred by a pure-competitive mechanism. […] Biophys. […] Curves were fitted by non-linear regression analysis (Prism) using a fixed value for the enzyme concentration.

**Q.** Which results are given for `O=C(N[C@H](C(=O)N1C[C@H](F)[C@H]2OCC(=O)[C@H]21)C1CCCCC1)c1ccccc1` [Compound 2]?
**A.** Ki [1]: 95 nM; fold improvement in in vitro potency against human cathepsin K ([1]; relative to Compound 1): 3.2 fold; fold improvement in in vitro potency against human cathepsin S ([2]; relative to Compound 1): 3.8 fold

**Q.** With `O=C(N[C@H](C(=O)N1C[C@H](Cl)[C@H]2OCC(=O)[C@H]21)C1CCCCC1)c1cccc(-n2ccnc2)c1` [EXAMPLE 3, N—((S)-2-((3aS,6S,6aS)-6-chloro-3-oxodihydro-2H-furo[3,2-b]pyrrol-4(5H,6H,6aH)-yl)-1-cyclohexyl-2-oxoethyl)-3-(1H-imidazol-1-yl)benzamide] as the compound, how does the Ki [1] read?
**A.** Its Ki is 23 nM.

**Q.** How did the Ki [1] turn out when `O=C(N[C@H](C(=O)N1C[C@H](F)[C@H]2OCC(=O)[C@H]21)C1CCCCC1)c1cccc(-n2cnnn2)c1` [Compound 4] was run?
**A.** The Ki was 340 nM.

**Q.** And the “fold improvement in in vitro potency against human cathepsin K” value ([1]; relative to compound 3)?
**A.** Its value is 1.7 fold.

**Q.** What about the “fold improvement in in vitro potency against human cathepsin S” value ([2]; relative to compound 3) of the same compound?
**A.** Its value is 3.4 fold.

**Q.** What does the source list for `O=C(N[C@H](C(=O)N1C[C@H](Cl)[C@H]2OCC(=O)[C@H]21)C1CCCCC1)c1cccc(-n2cnnn2)c1` [EXAMPLE 2, N—((S)-2-((3aS,6S,6aS)-6-chloro-3-oxodihydro-2H-furo[3,2-b]pyrrol-4(5H,6H,6aH)-yl)-1-cyclohexyl-2-oxoethyl)-3-(1H-tetrazol-1-yl)benzamide]?
**A.** Ki [1]: 27 nM; fold improvement in in vitro potency against human cathepsin K ([1]; relative to compound 3): 20.5 fold; fold improvement in in vitro potency against human cathepsin S ([2]; relative to compound 3): 47 fold

**Q.** `O=C(N[C@H](C(=O)N1C[C@@H](Cl)[C@H]2OCC(=O)[C@H]21)C1CCCCC1)c1cccc(-n2ccnc2)c1` [Compound 5] was tested. Which Ki [1] did it give?
**A.** Its Ki is 230 nM.

**Q.** With `O=C(N[C@H](C(=O)N1C[C@H](Cl)[C@H]2OCC(=O)[C@H]21)C1CCCCC1)c1ccccc1` [EXAMPLE 1, N—((S)-2-((3aS,6S,6aS)-6-chloro-3-oxodihydro-2H-furo[3,2-b]pyrrol-4(5H,6H,6aH)-yl)-1-cyclohexyl-2-oxoethyl)benzamide] as the compound, how does the Ki [1] read?
**A.** The Ki was 35 nM.

**Q.** With `O=C(N[C@H](C(=O)N1CC[C@H]2OCC(=O)[C@H]21)C1CCCCC1)c1cccc(-n2cnnn2)c1` [Compound 3] as the compound, how does the Ki [1] read?
**A.** The Ki was 560 nM.

**Q.** For `O=C(N[C@@H](CC1CCCCC1)C(=O)N1CC[C@H]2OCC(=O)[C@H]21)c1ccccc1` [Prior art compound 38, reference compound], which Ki [1] is on record?
**A.** The Ki was > 4000 nM.
